Laboratory results: patent US20100197650A1, “COMPOSITIONS AND METHODS OF TREATMENT COMPRISING CEFTAROLINE” (FOREST LABORATORIES HOLDINGS LTD., priority 2008, published 2010)
≈ marks a conversion by molar mass, not a printed value. Read-outs that look alike come from different tables or passages of the source.

Key:
[1] = tested on: HA-MRSA; test: Susceptibility testing MIC/MBC, broth microdilution (Example 3); format: cell-based, Staphylococcus aureus; settings: for MIC: read-out: MIC; for MIC50: read-out: MIC50
Experimental: Two hundred clinical HA-MRSA isolates, harboring the SCCmecIV type, were evaluated for susceptibility testing. […] Four strains, including 1 hVISA and 1 VISA, characterized by population analysis profile and Macro Etest were selected for time-kill analysis.
Trypose soy agar (TSA; Difco, Detroit, Mich.) was used for colony counting.
Minimum inhibitory concentrations (MIC) and minimum bactericidal concentrations (MBC) were determined by broth microdilution for all antimicrobials, according to the Clinical and Laboratory Standards Institute (CLSI) guidelines (Clinical and Laboratory Standards Institute. 2006. Methods for Dilution Antimicrobial Susceptibility Tests for Bacteria That Grow Aerobically; Approved Standard. 7th ed. Wayne, Pa.: CLSI). MBC values were determined by plating of aliquots of 5 μL from clear wells onto TSA. All susceptibility testing were performed in duplicate.

[2] = tested on: HA-MRSA; test: Time-kill curves at ¼ and ½ MIC (Example 3); format: cell-based, Staphylococcus aureus; settings: drug alone at ½ MIC, the 2 vancomycin-susceptible MRSA, followed by regrowth
Experimental: Four randomly selected HA-MRSA isolates were evaluated in time-kill experiments, using a starting inoculum at ˜10^6 CFU/mL and antimicrobials at ¼ and ½ MIC. Regimens included ceftaroline, vancomycin and tobramycin alone or combination of tobramycin with ceftaroline or vancomycin. […] Additivity, antagonism and indifference were defined as <2 but >1 log10 kill, >1 log10 growth and ±1 log kill, respectively.
Differences between regimens were analyzed by T-test or ANOVA with Tukey's post hoc test. […] A P value <0.05 was considered significant.

[3] = HA-MRSA isolates of origin Blood
[4] = HA-MRSA isolates of origin Lung
[5] = HA-MRSA isolates of origin Skin
[6] = HA-MRSA isolates of origin Unknown
[7] = HA-MRSA isolates of origin Urine

In the case of `CCO/N=C(\C(=O)N[C@@H]1C(=O)N2C(C(=O)[O-])=C(Sc3nc(-c4cc[n+](C)cc4)cs3)CS[C@H]12)c1nsc(N)n1` [Ceftaroline], the “% of Isolates with MBC 0.5 μg/mL” value ([1]; 200 HA-MRSA isolates) is reported as 22%, the “% of Isolates with MBC 1 μg/mL” value ([1]; 200 HA-MRSA isolates) is reported as 62.5% and the “% of Isolates with MBC 2 μg/mL” value ([1]; 200 HA-MRSA isolates) is reported as 15.5%. For the same compound, the “% of Isolates with MIC 0.25 μg/mL” value ([1]; 200 HA-MRSA isolates) was 4%, the “% of Isolates with MIC 0.5 μg/mL” value ([1]; 200 HA-MRSA isolates) was 35.5% and the “% of Isolates with MIC 1 μg/mL” value ([1]; 200 HA-MRSA isolates) was 57%. For the same compound, the “% of Isolates with MIC 2 μg/mL” value ([1]; 200 HA-MRSA isolates) was 1.5%, the “MBC range” value ([1]; 200 HA-MRSA isolates) was 0.5 to 2 µg/mL and the “MIC range” value ([1]; 200 HA-MRSA isolates) was 0.25 to 2 µg/mL. For the same compound, the “MBC range” value [1, 3] was 0.5 to 2 µg/mL, the “MIC range” value [1, 3] was 0.25 to 2 µg/mL and the “MBC range” value [1, 4] was 0.5 to 2 µg/mL. For the same compound, the “MIC range” value [1, 4] was 0.25 to 2 µg/mL, the “MBC range” value [1, 5] was 0.5 to 2 µg/mL and the “MIC range” value [1, 5] was 0.5 to 2 µg/mL. For the same compound, the “MBC range” value [1, 6] was 0.5 to 2 µg/mL, the “MIC range” value [1, 6] was 0.5 to 1 µg/mL and the “MBC range” value [1, 7] was 0.5 to 2 µg/mL. The “MIC range” value [1, 7] was 0.5 to 1 µg/mL, the MBC ([1]; Staphylococcus aureus, MRSA / VISA, HA-MRSA isolate R2303 (VISA), read-out: MBC) was 0.25 µg/mL (≈ 0.413 µM) and the MIC ([1]; Staphylococcus aureus, MRSA / VISA, HA-MRSA isolate R2303 (VISA)) was 0.25 µg/mL (≈ 0.413 µM). For the same compound, the MIC50 ([1]; Staphylococcus aureus, MRSA, 200 HA-MRSA isolates) was 1 µg/mL (≈ 1.65 µM), the MBC ([1]; Staphylococcus aureus, MRSA, HA-MRSA isolate R3804, read-out: MBC) was 0.25 µg/mL (≈ 0.413 µM) and the MIC ([1]; Staphylococcus aureus, MRSA, HA-MRSA isolate R3804) was 0.25 µg/mL (≈ 0.413 µM). It also gave an MBC ([1]; Staphylococcus aureus, MRSA, HA-MRSA isolate R3875 (hVISA), read-out: MBC) of 1 µg/mL (≈ 1.65 µM), an MIC ([1]; Staphylococcus aureus, MRSA, HA-MRSA isolate R3875 (hVISA)) of 1 µg/mL (≈ 1.65 µM) and an MBC ([1]; Staphylococcus aureus, MRSA, HA-MRSA isolate R4039, read-out: MBC) of 0.5 µg/mL (≈ 0.827 µM). The MIC ([1]; Staphylococcus aureus, MRSA, HA-MRSA isolate R4039) was 0.5 µg/mL (≈ 0.827 µM), the MBC ([1]; Staphylococcus aureus, MRSA, HA-MRSA isolates of origin Blood, read-out: MBC50) was 1 µg/mL (≈ 1.65 µM) and the MIC50 ([1]; Staphylococcus aureus, MRSA, HA-MRSA isolates of origin Blood) was 1 µg/mL (≈ 1.65 µM). It also gave an MBC ([1]; Staphylococcus aureus, MRSA, HA-MRSA isolates of origin Lung, read-out: MBC50) of 1 µg/mL (≈ 1.65 µM), an MIC50 ([1]; Staphylococcus aureus, MRSA, HA-MRSA isolates of origin Lung) of 1 µg/mL (≈ 1.65 µM) and an MBC ([1]; Staphylococcus aureus, MRSA, HA-MRSA isolates of origin Skin, read-out: MBC50) of 1 µg/mL (≈ 1.65 µM). It also gave an MIC50 ([1]; Staphylococcus aureus, MRSA, HA-MRSA isolates of origin Skin) of 1 µg/mL (≈ 1.65 µM), an MBC ([1]; Staphylococcus aureus, MRSA, HA-MRSA isolates of origin Unknown, read-out: MBC50) of 1 µg/mL (≈ 1.65 µM) and an MIC50 ([1]; Staphylococcus aureus, MRSA, HA-MRSA isolates of origin Unknown) of 1 µg/mL (≈ 1.65 µM). For the same compound, the MBC ([1]; Staphylococcus aureus, MRSA, HA-MRSA isolates of origin Urine, read-out: MBC50) was 1 µg/mL (≈ 1.65 µM), the MIC50 ([1]; Staphylococcus aureus, MRSA, HA-MRSA isolates of origin Urine) was 0.5 µg/mL (≈ 0.827 µM) and the MIC90 ([1]; Staphylococcus aureus, 200 HA-MRSA isolates, read-out: MIC90) was 1 µg/mL (≈ 1.65 µM). The “kill at 4 hours” value [2] was 1.5 log10.
